Assay results as given in patent US8987253B2, “Compound having activity of blocking NMDA receptor channel, and pharmaceutical agent using the same” (National University Corporation Chiba University, priority 2006, dated 2015).
Like-named read-outs stand apart in the source and are kept apart here.

Columns and labels:
NR1/NR2C = NR1/NR2C (Homo sapiens, UniProt Q05586+Q14957); assay: Reactivity with NMDA receptor subtype NR1/NR2C expressed on Xenopus oocytes; format: cell-based; settings: AQ444 0.1 to 30 μM, FIG. 2
Experimental: (§1) AQ444 was added to the perfusion solution to get a final concentration of 0.1 to 30 μM. […] Further, the intensities in channel blocking activity against the receptors were in the order of NR1/NR2A=NR1/NR2B=NR1/NR2D>>NR1/NR2C.

NR2B mutant N615Q = NR2B mutant N615Q (Homo sapiens, UniProt Q05586+Q13224, N615Q); assay: Channel blocking activity on NMDA receptor mutant NR2B N615Q expressed in eggs; format: cell-based; settings: FIG. 3
Excerpt: (§2) Site-directed mutagenesis was utilized to construct NMDA receptor mutants with amino acid substitutions. The NMDA receptor mutants were expressed in eggs in the same method as shown in Example 1 to investigate for channel blocking activity of AQ444. […] Other relevant amino acid residues on the NMDA receptors are shown in FIG. 4 together with their models.

NR1/NR2B = NR1/NR2B (Homo sapiens, UniProt Q05586+Q13224); assay: Reactivity with NMDA receptor subtype NR1/NR2B expressed on Xenopus oocytes; format: cell-based; settings: AQ444 0.1 to 30 μM, FIG. 2
Experimental: as §1

NR2B mutant N616Q = NR2B mutant N616Q (Homo sapiens, UniProt Q05586+Q13224, N616Q); assay: Channel blocking activity on NMDA receptor mutant NR2B N616Q expressed in eggs; format: cell-based; settings: FIG. 3
Excerpt: as §2

NR1/NR2D = NR1/NR2D (Homo sapiens, UniProt O15399+Q05586); assay: Reactivity with NMDA receptor subtype NR1/NR2D expressed on Xenopus oocytes; format: cell-based; settings: AQ444 0.1 to 30 μM, FIG. 2
Experimental: as §1

NR1 mutant N616R = assay: Channel blocking activity on NMDA receptor mutant NR1 N616R expressed in eggs; format: cell-based; settings: FIG. 3
Excerpt: as §2

NR1 mutant N616Q = assay: Channel blocking activity on NMDA receptor mutant NR1 N616Q expressed in eggs; format: cell-based; settings: FIG. 3
Excerpt: as §2

NR1/NR2A = NR1/NR2A (Homo sapiens, UniProt Q05586+Q12879); assay: Channel blocking activity on NMDA receptors (NR1/NR2A) expressed on Xenopus oocytes, two electrode voltage clamp; settings: for voltage dependence of channel blocking activity: membrane potential changed from −150 mV to +10 mV
Cytotoxicity = format: cell-based
[1] = read-out: 50% inhibition concentration (IC50) of channel blocking activity, membrane potential clamp at −70 mV, 10 μM glycine and 10 μM glutamic acid, Xenopus oocytes

Sequence of NR1/NR2A (Q12879 23-1464, other chains not shown): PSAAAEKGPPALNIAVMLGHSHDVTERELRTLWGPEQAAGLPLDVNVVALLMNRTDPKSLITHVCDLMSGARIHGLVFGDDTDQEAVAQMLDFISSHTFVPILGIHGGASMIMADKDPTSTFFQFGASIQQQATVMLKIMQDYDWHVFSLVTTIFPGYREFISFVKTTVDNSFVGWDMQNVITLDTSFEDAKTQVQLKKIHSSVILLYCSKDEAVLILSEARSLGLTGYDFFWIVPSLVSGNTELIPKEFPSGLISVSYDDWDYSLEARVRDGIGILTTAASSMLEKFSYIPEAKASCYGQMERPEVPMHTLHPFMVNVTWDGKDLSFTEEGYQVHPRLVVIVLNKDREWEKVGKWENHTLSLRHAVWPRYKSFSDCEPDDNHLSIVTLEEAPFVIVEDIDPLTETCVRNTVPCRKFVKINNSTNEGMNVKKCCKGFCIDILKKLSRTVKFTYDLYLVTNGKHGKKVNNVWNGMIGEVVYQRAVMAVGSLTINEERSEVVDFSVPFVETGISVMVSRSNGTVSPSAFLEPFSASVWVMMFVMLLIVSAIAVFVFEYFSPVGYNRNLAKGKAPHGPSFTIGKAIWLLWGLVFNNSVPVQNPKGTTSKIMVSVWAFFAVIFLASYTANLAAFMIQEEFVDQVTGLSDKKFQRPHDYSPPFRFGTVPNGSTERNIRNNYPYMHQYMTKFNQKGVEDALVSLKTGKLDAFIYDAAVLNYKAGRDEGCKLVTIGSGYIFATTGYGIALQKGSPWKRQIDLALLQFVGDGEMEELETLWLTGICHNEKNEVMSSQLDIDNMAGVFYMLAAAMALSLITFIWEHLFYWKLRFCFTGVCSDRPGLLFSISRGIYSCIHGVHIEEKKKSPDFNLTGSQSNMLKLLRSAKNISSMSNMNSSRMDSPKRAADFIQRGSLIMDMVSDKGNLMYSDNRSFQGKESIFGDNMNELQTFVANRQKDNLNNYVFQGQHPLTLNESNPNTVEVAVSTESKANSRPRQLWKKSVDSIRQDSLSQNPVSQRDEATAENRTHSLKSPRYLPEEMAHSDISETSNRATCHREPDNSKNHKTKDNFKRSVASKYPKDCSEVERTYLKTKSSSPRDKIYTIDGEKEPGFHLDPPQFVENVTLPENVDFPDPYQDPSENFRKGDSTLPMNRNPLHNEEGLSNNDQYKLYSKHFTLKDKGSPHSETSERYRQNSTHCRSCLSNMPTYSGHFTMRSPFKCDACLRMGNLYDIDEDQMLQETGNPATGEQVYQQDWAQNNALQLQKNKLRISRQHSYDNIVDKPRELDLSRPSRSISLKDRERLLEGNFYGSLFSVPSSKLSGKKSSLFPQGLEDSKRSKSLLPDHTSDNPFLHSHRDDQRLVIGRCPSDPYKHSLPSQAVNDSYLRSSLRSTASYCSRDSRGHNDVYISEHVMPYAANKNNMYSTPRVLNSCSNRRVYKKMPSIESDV
Sequence of NR1/NR2D (O15399 28-1336, other chains not shown): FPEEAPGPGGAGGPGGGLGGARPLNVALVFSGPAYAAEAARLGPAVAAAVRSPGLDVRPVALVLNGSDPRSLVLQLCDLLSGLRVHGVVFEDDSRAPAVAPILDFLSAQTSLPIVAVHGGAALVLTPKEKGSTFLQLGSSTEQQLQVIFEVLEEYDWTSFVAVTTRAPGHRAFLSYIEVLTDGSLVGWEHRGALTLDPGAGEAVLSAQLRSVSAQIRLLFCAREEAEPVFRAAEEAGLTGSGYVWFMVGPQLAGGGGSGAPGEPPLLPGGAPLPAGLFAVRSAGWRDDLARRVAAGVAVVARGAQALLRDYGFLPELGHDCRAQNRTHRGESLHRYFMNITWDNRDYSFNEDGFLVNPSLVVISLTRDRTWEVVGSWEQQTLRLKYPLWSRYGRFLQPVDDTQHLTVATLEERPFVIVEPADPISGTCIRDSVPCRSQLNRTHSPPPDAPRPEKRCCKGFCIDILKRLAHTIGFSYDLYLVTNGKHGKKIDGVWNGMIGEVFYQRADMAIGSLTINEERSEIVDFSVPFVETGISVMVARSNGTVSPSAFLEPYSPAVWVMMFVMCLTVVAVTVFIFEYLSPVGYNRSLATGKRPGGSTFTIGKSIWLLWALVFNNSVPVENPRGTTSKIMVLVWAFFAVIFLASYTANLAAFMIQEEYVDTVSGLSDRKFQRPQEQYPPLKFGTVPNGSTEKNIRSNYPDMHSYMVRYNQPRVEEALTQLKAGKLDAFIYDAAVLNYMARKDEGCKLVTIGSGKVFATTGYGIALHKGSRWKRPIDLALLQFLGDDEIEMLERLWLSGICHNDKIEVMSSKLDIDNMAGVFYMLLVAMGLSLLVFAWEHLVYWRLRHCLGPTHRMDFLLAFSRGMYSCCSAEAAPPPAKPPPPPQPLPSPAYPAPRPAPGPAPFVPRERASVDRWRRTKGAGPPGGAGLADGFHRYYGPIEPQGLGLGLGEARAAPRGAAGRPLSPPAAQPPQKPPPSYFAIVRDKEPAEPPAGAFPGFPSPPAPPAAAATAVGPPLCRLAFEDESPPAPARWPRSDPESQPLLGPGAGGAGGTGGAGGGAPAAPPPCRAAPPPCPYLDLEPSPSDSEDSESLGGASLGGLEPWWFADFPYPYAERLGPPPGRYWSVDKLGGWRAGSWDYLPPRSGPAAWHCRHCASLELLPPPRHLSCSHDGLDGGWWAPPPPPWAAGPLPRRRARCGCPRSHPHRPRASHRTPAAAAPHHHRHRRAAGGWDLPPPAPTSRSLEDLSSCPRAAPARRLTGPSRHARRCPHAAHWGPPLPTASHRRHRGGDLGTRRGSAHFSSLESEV
Sequence of NR2B mutant N615Q (Q13224 27-1484 N615Q, other chains not shown): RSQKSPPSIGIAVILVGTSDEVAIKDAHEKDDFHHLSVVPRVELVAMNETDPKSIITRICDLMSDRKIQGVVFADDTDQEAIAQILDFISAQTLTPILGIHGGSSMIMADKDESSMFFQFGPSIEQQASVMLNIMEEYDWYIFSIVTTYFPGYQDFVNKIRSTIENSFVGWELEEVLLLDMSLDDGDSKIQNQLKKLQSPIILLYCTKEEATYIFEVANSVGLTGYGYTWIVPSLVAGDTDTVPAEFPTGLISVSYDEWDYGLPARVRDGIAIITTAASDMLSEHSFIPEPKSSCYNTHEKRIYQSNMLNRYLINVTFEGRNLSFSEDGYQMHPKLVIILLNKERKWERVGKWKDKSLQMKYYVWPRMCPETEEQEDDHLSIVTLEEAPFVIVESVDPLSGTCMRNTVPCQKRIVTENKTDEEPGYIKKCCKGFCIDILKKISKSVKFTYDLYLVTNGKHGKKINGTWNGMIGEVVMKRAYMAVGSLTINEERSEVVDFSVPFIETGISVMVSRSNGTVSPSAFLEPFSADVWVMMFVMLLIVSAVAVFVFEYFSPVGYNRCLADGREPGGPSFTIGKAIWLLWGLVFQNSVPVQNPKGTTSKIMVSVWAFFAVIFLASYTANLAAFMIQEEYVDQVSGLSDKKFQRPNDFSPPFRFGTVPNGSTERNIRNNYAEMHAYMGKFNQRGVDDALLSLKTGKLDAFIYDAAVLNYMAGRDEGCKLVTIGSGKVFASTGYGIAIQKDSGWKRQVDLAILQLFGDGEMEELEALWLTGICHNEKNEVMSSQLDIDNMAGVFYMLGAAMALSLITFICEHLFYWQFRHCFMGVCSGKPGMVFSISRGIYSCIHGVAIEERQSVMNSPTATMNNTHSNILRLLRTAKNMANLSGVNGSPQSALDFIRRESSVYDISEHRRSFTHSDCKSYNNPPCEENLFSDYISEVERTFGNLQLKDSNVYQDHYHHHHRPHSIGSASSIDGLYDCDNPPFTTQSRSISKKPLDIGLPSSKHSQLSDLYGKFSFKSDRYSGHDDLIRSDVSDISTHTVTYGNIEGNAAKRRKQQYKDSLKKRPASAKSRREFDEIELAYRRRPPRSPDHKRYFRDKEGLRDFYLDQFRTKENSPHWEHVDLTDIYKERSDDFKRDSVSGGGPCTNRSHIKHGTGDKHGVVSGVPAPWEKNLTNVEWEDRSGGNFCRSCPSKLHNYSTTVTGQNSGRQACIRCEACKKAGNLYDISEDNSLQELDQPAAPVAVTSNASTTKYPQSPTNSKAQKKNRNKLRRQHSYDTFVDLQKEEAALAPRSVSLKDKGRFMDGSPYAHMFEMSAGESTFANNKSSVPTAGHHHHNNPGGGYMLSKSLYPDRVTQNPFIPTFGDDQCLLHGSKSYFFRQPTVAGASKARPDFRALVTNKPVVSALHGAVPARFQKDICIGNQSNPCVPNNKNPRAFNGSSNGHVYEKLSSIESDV

IC50 (NR1/NR2A) [µM]	voltage dependence of channel blocking activity (NR1/NR2A)	IC50 (NR1/NR2A; [1]) [µM]	SMILES	IC50 (Cytotoxicity) [µM]	further results
0.47	showed voltage dependence		NCCCCNCCCCNCCCCNC(=O)c1ccc2c(c1)C(=O)c1ccccc1C2=O [AQ444, Anthraquinone Homospermine]		order of intensity in channel blocking activity among subtypes (NR1/NR2C): NR1/NR2A=NR1/NR2B=NR1/NR2D>>NR1/NR2C; channel blocking activity on mutant (NR2B mutant N615Q): significantly decreased channel blocking activity; order of intensity in channel blocking activity among subtypes (NR1/NR2B): NR1/NR2A=NR1/NR2B=NR1/NR2D>>NR1/NR2C; channel blocking activity on mutant (NR2B mutant N616Q): significantly decreased channel blocking activity; order of intensity in channel blocking activity among subtypes (NR1/NR2D): NR1/NR2A=NR1/NR2B=NR1/NR2D>>NR1/NR2C; channel blocking activity on mutant (NR1 mutant N616R): significantly decreased channel blocking activity; channel blocking activity on mutant (NR1 mutant N616Q): significantly decreased channel blocking activity; order of intensity in channel blocking activity among subtypes (NR1/NR2A; NR1/NR2A, AQ444 0.1 to 30 μM, FIG. 2): NR1/NR2A=NR1/NR2B=NR1/NR2D>>NR1/NR2C
	in a voltage-dependent manner	0.24	NCCCCNCCCCNCCCCNC(=O)N1c2ccccc2C=Cc2ccccc21 [DBA444, Dibenzoazepine Homospermine]	132	
	in a voltage-dependent manner	0.072	NCCCCNCCCCNCCCCNC(=O)N1c2ccccc2CCc2ccccc21 [DDBA444, Dihydrodibenzoazepine Homospermine]	133	
15			NCCCNCCCCNCCCNC(=O)n1c2ccccc2c2ccccc21 [carbazole spermine, Carbazole Spermine]		
			CC12CC3CC(C)(C1)CC(N)(C3)C2 [memantine, reference compound]	147	
